Experiments:
[1] = biological target: T1, active BTK enzyme (Upstate 14-552) (Homo sapiens, UniProt Q06187); assay: In Vitro BTK Kinase Assay: Btk-PolyGAT-LS Assay; type: biochemical; conditions: ATP 10 μM, polyGAT 100 nM, BTK 0.25 nM, 30 minutes, TRF readout
T1 construct: purchased Upstate 14-552
Outline: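 Active BTK (0.25 nM) phosphorylates fluorescein-polyGAT peptide (100 nM) with 10 µM ATP in Tris-HCl pH 7.5/MgCl2/DTT buffer, 30 min, EDTA stop. Phosphopeptide detected by TR-FRET with Tb-PY20 antibody after 45 min at room temperature; IC50 from four-parameter fit against DMSO and EDTA controls.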

[2] = test system: CD69 expression on CD19+ B cells in human whole blood; assay: In Vitro whole blood CD69 Assay; type: cell-based; conditions: B-cell; human heparinized whole blood, anti-human IgD stimulation overnight, percentage of CD19+ B cells expressing CD69, flow cytometry; read-out: IC50
Experimental: In Vitro whole blood CD69 Assay
Human heparinized venous blood from health donors was aliquoted into 96-well plate and “spiked” with serial dilutions of formula I compounds in DMSO or with DMSO without drug. The final concentration of DMSO in all wells was 0.1%. The plate was incubated at 37° C. for 30 min. Drug-containing samples were stimulated with […] mouse anti-human IgD-dextran (1A62) or […] polyclonal rabbit F(ab′)2 anti-human IgD. Phosphate-buffered saline (PBS) was added to the negative control unstimulated sample and the plates were incubated overnight (18 to 22 hours) at 37° C. Cells were stained with fluorochrome-conjugated anti-CD19 and anti-CD69 antibodies. Lyse/fix solution was used to remove red blood cells by hypotonic lysis and to fix the remaining cells, which were then analyzed by flow cytometry. CD19+ B cells were gated and analyzed for CD69 expression. The percentage of B cells expressing CD69 was plotted versus the log 10 of the concentration of the drug and the best-fit curves (variable Hill slope) were generated to obtain the IC50 value.

T1 sequence (Q06187 whole entry): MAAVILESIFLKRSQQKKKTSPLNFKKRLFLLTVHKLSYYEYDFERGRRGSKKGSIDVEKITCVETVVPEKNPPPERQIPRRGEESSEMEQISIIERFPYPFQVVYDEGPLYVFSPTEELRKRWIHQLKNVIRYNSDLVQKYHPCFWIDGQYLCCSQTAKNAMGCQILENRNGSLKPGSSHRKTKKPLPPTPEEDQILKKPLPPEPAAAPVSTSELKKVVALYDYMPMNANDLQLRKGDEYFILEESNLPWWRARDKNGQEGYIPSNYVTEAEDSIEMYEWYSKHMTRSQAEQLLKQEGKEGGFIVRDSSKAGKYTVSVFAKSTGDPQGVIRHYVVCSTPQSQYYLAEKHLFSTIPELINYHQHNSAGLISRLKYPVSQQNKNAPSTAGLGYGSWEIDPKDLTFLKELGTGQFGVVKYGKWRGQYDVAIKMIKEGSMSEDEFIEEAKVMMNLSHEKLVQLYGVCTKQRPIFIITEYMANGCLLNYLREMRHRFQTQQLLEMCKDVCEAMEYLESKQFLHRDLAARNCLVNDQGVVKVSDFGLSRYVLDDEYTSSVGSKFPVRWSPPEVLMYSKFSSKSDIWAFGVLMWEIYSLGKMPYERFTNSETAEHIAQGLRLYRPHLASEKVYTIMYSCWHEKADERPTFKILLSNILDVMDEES

Row | IC50 [1] | IC50 [2] | Compound
1 | ≤ 1 nM | 100 to 1000 nM | Cc1cc(-c2ccncc2N2CCN(C(=O)/C=C/CN(C)C)CC2)ccc1CNC(=O)c1nc(C2(C)CC2)no1 [Example 73, (E)-N-(4-(3-(4-(4-(dimethylamino)but-2-enoyl)piperazin-1-yl)pyridin-4-yl)-2-methylbenzyl)-3-(1-methylcyclopropyl)-1,2,4-oxadiazole-5-carboxamide]
2 | 1 to 10 nM | > 1000 nM | C=CC(=O)N1CCCC12CCN(c1cnccc1-c1ccc(CNC(=O)c3cn(C(C)(C)C)nn3)c(C)c1)C2 (centres unmarked) [Example 3, N-(4-(3-(1-acryloyl-1,7-diazaspiro[4.4]nonan-7-yl)pyridin-4-yl)-2-methylbenzyl)-1-(tert-butyl)-1H-1,2,3-triazole-4-carboxamide]
3 | 1 to 10 nM | > 1000 nM | C=CC(=O)N1CCC[C@H](c2cnccc2-c2ccc(CNC(=O)c3nc(C4(C)CC4)no3)c(C)c2)C1 (single isomer, unassigned) [Example 30]
4 | ≤ 1 nM | > 1000 nM | C=CC(=O)N(C)[C@@H]1CCCCN(c2cnccc2-c2ccc(CNC(=O)c3cn(C(C)(C)C)nn3)c(C)c2)C1 [Example 51, (R)-1-(tert-butyl)-N-(2-methyl-4-(3-(3-(N-methylacrylamido)azepan-1-yl)pyridin-4-yl)benzyl)-1H-1,2,3-triazole-4-carboxamide]
